Laboratory results published in patent publication US20230021562A1, “[…] D[…]-1 INHIBITORS” (priority 2019, published 2023).
Several values for one entry are separate records, joined by “and”; a condition that tells them apart may be missing. Equal entries are not always repeated. Where two headings read alike, the source gives them in different places.

Columns and labels:
MOLP8 cell line = assay: MOLP8 CellEvent Caspase-3/7 Green live-cell IncuCyte apoptosis assay; type: cell-based, human; conditions: averaged values
Method: (§1) MCL-1 is a regulator of apoptosis and is highly over-expressed in tumor cells that escape cell death. The assay evaluates the cellular potency of small-molecule compounds targeting regulators of the apoptosis pathway, primarily MCL-1, Bfl-1, Bcl-2, and other proteins of the Bcl-2 family. Protein-protein inhibitors disrupting the interaction of anti-apoptotic regulators with BH3-domain proteins initiate apoptosis.
Activation of the apoptotic pathway was measured using the CellEvent™ Caspase-3/7 Green ReadyProbes™ Reagent (Thermo Fisher C10423, C10723). This assay produces a green fluorescent stain in cells that enter the apoptosis pathway. CellEvent® Caspase-3/7 Green reagent is a four amino acid peptide (DEVD) conjugated to a nucleic acid-binding dye that is non-fluorescent when not bound to DNA. The CellEvent® Caspase-3/7 Green reagent is intrinsically non-fluorescent, as the DEVD peptide inhibits binding of the dye to DNA. Upon activation of caspase-3/7 in apoptotic cells, the DEVD peptide is cleaved and the free dye can bind DNA, generating a bright green fluorescence. The activation of Caspase-3 and Caspase-7 is downstream of inhibition of MCL-1 or other apoptosis inhibiting proteins in cell lines that are dependent on them.
The live-cell readout on the IncuCyte permits tracking over time of the Caspase activation. […] The IncuCyte readout also allows one to normalize for cell number, as the suspension cells are hard to distribute evenly.
Signals were measured every 2 h for a duration of 22 h. The ratio of the Caspase mask to the Confluence mask, per image, as raw data, was calculated and the kinetic trace for every well was exported to Genedata Screener for analysis.
In Genedata Screener values for 6 h, 12 h, and 22 h from the kinetic traces were extracted. The values were normalized against negative controls (untreated cells). A standard dose-response analysis was performed on the normalized data.
The following data was reported at each of the following three aforementioned time points: (a) The dose-response curve, (b) The qAC50 and qAC50 Mode, and (c) Max Activity.
Cells were maintained in culture medium containing 10% Heat Inactivated (HI) FBS, 2 mM L-Glutamine and 50 μg/mL Gentamycin phenol red free RPMI-1640. Cells were split at 0.4 million/mL twice a week.
On Day 1, plates containing individual wells with test compounds at 10 mM concentration, 150 nL per well. The final concentrations range from […] compound (and no compound control) and compounds were thawed at room temperature for 1 hour. 25 μl of prewarmed medium was added into each well by multidrop (column 1, 3-22, 24), followed by addition of DMSO control (0.6% DMSO) in column 2. The plate was sealed using Breathe-Easy® sealing membrane and shaken for 30 min at room temperature to dissolve the test compound(s) in medium. The plate was then kept in the incubator for 1 hour at 37° C., 5% CO2.
MOLP8 cells in medium at […] (20000/50 μl final in assay) were prepared with CellEvent™ Caspase-3/7 Green Detection Reagent at 4 μM (2 μM final in assay). Once prepared, the cells were added to the test compound plate in an amount of 20000 and the plate was immediately placed in the IncuCyte and imaging started using following settings: 10× objective, 2 s exposure time in green channel, interval of 2 h, acquisition stopped after 22 h.
For analysis in IncuCyte, a Basic Analysis protocol was defined to calculate the “confluence” and “caspase” areas from the “Phase” and “green” images, respectively, as follows: (a) Confluence: Segmentation Adjustment 1, Hole Fill 0, Adjust Size −2, No filters (b) Caspase: Top-Hat segmentation, Radius 10, Threshold 0.3 GCU, Edge Split On with sensitivity 0, Hole Fill 0, Adjust Size 1, and filter on a minimum Area of 20 μm^2. The analyzer is trained on a sufficient number of positive and negative control wells, as well as compound treated wells, verifying that the “confluence” layer detects both live and dead (condensed) cells. […]

[1] = system: MOLP-8 human multiple myeloma cell line; assay: MOLP8 Caspase-Glo 3/7 luminescent assay; type: cell-based
Source text: as §1
The Caspase-Glo® 3/7 Assay is a luminescent assay that measures caspase-3 and -7 activities in purified enzyme preparations or cultures of adherent or suspension cells. The assay provides a proluminescent caspase-3/7 substrate, which contains the tetrapeptide sequence DEVD. This substrate is cleaved to release aminoluciferin, a substrate of luciferase used in the production of light. Addition of the single Caspase-Glo® 3/7 Reagent in an “add-mix-measure” format results in cell lysis, followed by caspase cleavage of the substrate and generation of a “glow-type” luminescent signal.
This assay uses the MOLP-8 human multiple myeloma cell line, which is sensitive to MCL-1 inhibition.
Cell cultures were maintained between 0.2 and 2.0×10^6 cells/mL. The cells were harvested by collection in 50 mL conical tubes. The cells were then pelleted at 500 g for 5 mins before removing supernatant and resuspension in fresh pre-warmed culture medium. The cells were counted and diluted as needed.
The assay reagent was prepared by transferring the buffer solution to the substrate vial and mixing. The solution may be stored for up to 1 week at 4° C. with negligible loss of signal.
Compounds were delivered in assay-ready plates (Proxiplate) and stored at −20° C.
Assays always include 1 reference compound plate containing reference compounds. The plates were spotted with 40 nL of compounds (0.5% DMSO final in cells; serial dilution; 30 μM highest conc. 1/3 dilution, 10 doses, duplicates). The compounds were used at room temperature and 4 μL of pre-warmed media was added to all wells except column 2 and 23. The negative control was prepared by adding 1% DMSO in media. The positive control was prepared by adding the appropriate positive control compound in final concentration of 60 μM in media. The plate was prepared by adding 4 μL negative control to column 23, 4 μL positive control to column 2 and 4 μL cell suspension to all wells in the plate. The plate with cells was then incubated at 37° C. for 2 hours. The assay signal reagent is the Caspase-Glo solution described above, and 8 μL was added to all wells. The plates were then sealed and measured after 30 minutes.
The activity of a test compound was calculated as percent change in apoptosis induction as follows: […]

[2] = target: Myeloid Cell Leukemia 1 (Mcl-1) (Homo sapiens, UniProt Q07820); assay: biochemical; type: binding; conditions: HTRF Ki (nM)
[3] = read-out: MOLP8 Caspase 3/7 AC50 at 6 h, MOLP8 cells, 6 h
[4] = read-out: MOLP8 Caspase 3/7 AC50 at 12 h, MOLP8 cells, 12 h
[5] = read-out: MOLP8 Caspase 3/7 AC50 at 22 h, MOLP8 cells, 22 h
[6] = MOLP8 cells, 2 hours incubation; averaged over all runs on all batches; read-out: MOLP8 Caspase-Glo AC50
[7] = read-out: MOLP8 Caspase-Glo AC50; MOLP8 cells, 2 hours incubation; averaged over all runs on all batches
[8] = Homo sapiens, MOLP-8, 6 h, read-out: MOLP8 Caspase 3/7 AC50 at 6 h (μM), MOLP8 cells, 6 h
[9] = Homo sapiens, MOLP-8, 12 h, read-out: MOLP8 Caspase 3/7 AC50 at 12 h (μM), MOLP8 cells, 12 h
[10] = Homo sapiens, MOLP-8, 22 h, read-out: MOLP8 Caspase 3/7 AC50 at 22 h (μM), MOLP8 cells, 22 h

Myeloid Cell Leukemia 1 (Mcl-1), sequence (Q07820 whole entry): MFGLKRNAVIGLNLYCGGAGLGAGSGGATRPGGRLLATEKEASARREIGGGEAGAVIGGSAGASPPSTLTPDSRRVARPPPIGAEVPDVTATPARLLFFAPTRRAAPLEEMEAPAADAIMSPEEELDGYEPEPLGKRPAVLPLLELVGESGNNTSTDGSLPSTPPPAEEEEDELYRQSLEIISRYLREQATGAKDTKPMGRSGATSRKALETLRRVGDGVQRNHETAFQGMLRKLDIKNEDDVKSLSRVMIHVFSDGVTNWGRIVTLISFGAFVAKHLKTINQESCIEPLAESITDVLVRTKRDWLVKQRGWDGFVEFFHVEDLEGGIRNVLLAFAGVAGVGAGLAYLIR

| SMILES | AC50 (MOLP8 cell line; [3]) [µM] | AC50 (MOLP8 cell line; [4]) [µM] | AC50 (MOLP8 cell line; [5]) [µM] | AC50 [1, 6] [nM] | Ki [2] | AC50 [1, 7] [nM] | AC50 (MOLP8 cell line; [8]) [µM] | AC50 (MOLP8 cell line; [9]) [µM] | AC50 (MOLP8 cell line; [10]) [µM] |
| --- | --- | --- | --- | --- | --- | --- | --- | --- | --- |
| Cc1c2c(nn1CCN1CCOCC1)CN(C)Cc1cc(n(C)n1)CSc1cc(c3ccccc3c1)OCCCc1c(C(=O)O)n(C)c3c-2c(Cl)ccc13 (single isomer, unassigned) [Compound 13] | 0.15 | 0.15 | 0.17 | 75 | 0.05 nM and 0.04 nM | – | – | – | – |
| Cc1c2c(nn1CCN1CCOCC1)CN(C)Cc1cc(n(C)n1)CSc1cc(c3ccccc3c1)OCCCc1c(C(=O)O)n(C)c3c-2c(Cl)ccc13 (single isomer, unassigned) [Compound 14] | 7.67 | 7.16 | 7.33 | 3680 | 2.85 nM and 2.53 nM | – | – | – | – |
| Cc1nn(CC2CCOCC2)c2c1-c1c(Cl)ccc3c(c(C(=O)O)n(C)c13)CCCOc1cc(cc3ccccc13)SCc1cc(nn1C)CN(C)C2 (single isomer, unassigned) [Compound 15] | 0.23 | 0.23 | 0.19 | 67 | 0.09 nM and 0.03 nM | – | – | – | – |
| Cc1c2c(nn1CC1CCOCC1)CN(C)Cc1cc(n(C)n1)CSc1cc(c3ccccc3c1)OCCCc1c(C(=O)O)n(C)c3c-2c(Cl)ccc13 (single isomer, unassigned) [Compound 16] | 0.15 | 0.14 | 0.15 | 49 | 0.06 nM and 0.05 nM | – | – | – | – |
| Cc1c2c(nn1CC1CCOCC1)CN(C)Cc1cc(n(C)n1)CSc1cc(c3ccccc3c1)OCCCc1c(C(=O)O)n(C)c3c-2c(Cl)ccc13 (single isomer, unassigned) [Compound 17] | 1.23 | 1.24 | 1.22 | 564 | 0.41 nM and 0.66 nM | – | – | – | – |
| Cc1nn(CC2CCOCC2)c2c1-c1c(Cl)ccc3c(c(C(=O)O)n(C)c13)CCCOc1cc(cc3ccccc13)SCc1cc(nn1C)CN(C)C2 (single isomer, unassigned) [Compound 18] | 8.32 | 8.41 | 7.85 | 3760 | 2.46 nM and 3.31 nM | – | – | – | – |
| COCCn1nc(C)c2c1CN(C)Cc1cc(n(C)n1)CSc1cc(c3ccccc3c1)OCCCc1c(C(=O)O)n(C)c3c-2c(Cl)ccc13 (single isomer, unassigned) [Compound 25] | 0.09 | 0.1 | 0.11 | – | 0.04 nM | – | – | – | – |
| Cc1c2c(nn1CCCN1CCOCC1)CN(C)Cc1cc(n(C)n1)CSc1cc(c3ccccc3c1)OCCCc1c(C(=O)O)n(C)c3c-2c(Cl)ccc13 (single isomer, unassigned) [Compound 35] | 0.15 | 0.15 | 0.15 | – | 0.04 nM | – | – | – | – |
| Cc1c2c(nn1CCO)CN(C)Cc1cc(n(C)n1)CSc1cc(c3ccccc3c1)OCCCc1c(C(=O)O)n(C)c3c-2c(Cl)ccc13 (single isomer, unassigned) [Compound 37] | 0.71 | 0.62 | 0.56 | – | 0.06 nM and 0.04 nM | – | – | – | – |
| Cc1nn(CCO)c2c1-c1c(Cl)ccc3c(c(C(=O)O)n(C)c13)CCCOc1cc(cc3ccccc13)SCc1cc(nn1C)CN(C)C2 (single isomer, unassigned) [Compound 39] | 0.65 | 0.85 | 0.65 | – | 0.06 nM and 0.05 nM | – | – | – | – |
| CCn1nc2cc1CSc1cc(c3ccccc3c1)OCCCc1c(C(=O)O)n(C)c3c(c(Cl)ccc13)-c1c(nn(C)c1C)CSC2 (single isomer, unassigned) [Compound 43] | – | – | – | – | 0.04 nM | 63 | – | – | – |
| CCn1nc2cc1CSc1cc(c3ccccc3c1)OCCCc1c(C(=O)O)n(C)c3c(c(Cl)ccc13)-c1c(nn(C)c1C)CSC2 (single isomer, unassigned) [Compound 44] | – | – | – | – | 4.06 nM | 3560 | – | – | – |
| CCn1nc2cc1CSCc1nn(C)c(C)c1-c1c(Cl)ccc3c(c(C(=O)O)n(C)c13)CCCOc1cc(cc3ccccc13)SC2 [Compound 1] | – | – | – | – | 0.15 nM | – | 0.13 | 0.13 | 0.11 |
| Cc1c2c(nn1C)CSCc1cc(nn1CCN(C)C)CSc1cc(c3ccccc3c1)OCCCc1c(C(=O)O)n(C)c3c-2c(Cl)ccc13 [Compound 4] | – | – | – | – | 0.09 nM and 0.1 nM | – | 0.22 | 0.25 | 0.23 |
| Cc1c2c(nn1C)CSCc1cc(n(CCN(C)C)n1)CSc1cc(c3ccccc3c1)OCCCc1c(C(=O)O)n(C)c3c-2c(Cl)ccc13 [Compound 5] | – | – | – | – | 0.06 nM and 0.08 nM | – | 0.08 | 0.08 | 0.07 |
| Cc1c2c(nn1C)CSCc1cc(n(CCO)n1)CSc1cc(c3ccccc3c1)OCCCc1c(C(=O)O)n(C)c3c-2c(Cl)ccc13 [Compound 7] | – | – | – | – | < 0.094 nM | – | 0.47 | 0.45 | 0.46 |
| Cc1c2c(nn1C)CSCc1cc(nn1CCN1CCOCC1)CSc1cc(c3ccccc3c1)OCCCc1c(C(=O)O)n(C)c3c-2c(Cl)ccc13 [Compound 8] | – | – | – | – | 0.13 nM and 0.08 nM | – | 0.24 | 0.24 | 0.25 |
| Cc1c2c(nn1C)CSCc1cc(n(CCN3CCOCC3)n1)CSc1cc(c3ccccc3c1)OCCCc1c(C(=O)O)n(C)c3c-2c(Cl)ccc13 [Compound 9] | – | – | – | – | 0.05 nM | – | 0.1 | 0.097 | 0.1 |
| Cc1c2c(nn1C)CSCc1cc(n(CC3CCOCC3)n1)CSc1cc(c3ccccc3c1)OCCCc1c(C(=O)O)n(C)c3c-2c(Cl)ccc13 [Compound 12] | – | – | – | – | 0.05 nM and 0.08 nM | – | 0.18 | 0.18 | 0.13 |
